Data set [1] is described as follows: Displacement of adsorbed payload molecule from discrete carbon nanotubes by later addition of PVOH. Type of data set: physicochemical.
For data set [2] the following is noted: in water, cited from earlier work.
Assay in data set [3]: not given
The source holds these as a separate data set.

Where two headings read alike, the source gives them in different places.

Turning to `CCOP(=O)(Cc1ccc(OC)cc1)OCC` [D4MBP], in data set [1] (Example 10, calculation as in Example 1), the “D4MBP originally residing on the outermost wall displaced by the PVOH, estimated” value is reported as “about 80%”.

With `NC(=O)CC[C@@H]1NC(=O)[C@H](Cc2ccccc2)NC(=O)[C@H](Cc2ccc(O)cc2)NC(=O)CCSSC[C@@H](C(=O)N2CCC[C@H]2C(=O)N[C@H](CCCN=C(N)N)C(=O)NCC(N)=O)NC(=O)[C@H](CC(N)=O)NC1=O` [Desmopressin], the “Hydrodynamic Radius” value in data set [2] is listed as 0.88 nm.

Take `O=C(O)c1cccnc1` [Niacin, Pyridine-3-carboxylic acid]: the “final adsorption of niacin after sodium hydroxide addition” value (Example 6: no PVOH, 2 ml 0.1 molar sodium hydroxide added after equilibrium, pH from about 4 to about 7.3, about 180 minutes) is reported as 0.03 g niacin/g discrete carbon nanotubes. The “reduction of the amount of niacin adsorbed on the discrete carbon nanotubes after sodium hydroxide addition” value (Example 7: PVOH-encapsulated, 2 ml 0.1 Molar sodium hydroxide, overall period 40 + 55 + 110 minutes, pH about 4.2 to 8) is “about 42%”. Further, the “equilibrium niacin concentration on discrete carbon nanotubes before pH increase” value (Example 7: niacin then PVOH, PVOH to discrete carbon nanotubes 0.3:1 by weight) was 0.0476 g niacin/g discrete carbon nanotubes. The “ratio of niacin adsorbed internally versus externally (times less internally)” value in data set [3] (Example 1, assumes same adsorption concentration on both walls) was “about 2.4 times”. Besides, the “amount of niacin adsorbed after 5 hours” value in data set [3] (Example 2: nanotubes with 0.05% weight oxidized species, otherwise as Example 1) is on record as 0.088 g niacin/g discrete carbon nanotubes. The “niacin adsorbed, less than in Example 1” value in data set [3] (Example 3 (PVOH added at the same time) versus Example 1 (no PVOH)) was around 30%. The “concentration of adsorbed niacin after a further 85 minutes” value in data set [3] (Example 5: nanotubes pretreated with PVOH about 20 hours, then niacin added, 100 + 85 minutes) was 0.0226 g niacin/g of discrete carbon nanotubes. Moreover, the “Hydrodynamic Radius” value in data set [2] is reported as 0.33 nm. In addition, the “adsorbed niacin released by subsequent addition of PVOH” value in data set [1] (Example 4: PVOH added after niacin adsorption equilibrium, weight ratio 0.23 PVOH:1 discrete carbon nanotubes) is on record as 25 % wt.

Regarding `CN1CCCC1c1cccnc1` (centres unmarked) [Nicotine], the “Hydrodynamic Radius” value in data set [2] was 0.38 nm.

In the case of Bovine serum albumin, the figures for the “Hydrodynamic Radius” value in data set [2] and in data set [2] (listed as bovine serum albumin) were 7.0 nm and 7 nm, respectively.

In the case of Cytochrome C, the “Hydrodynamic Radius” value in data set [2] is listed as 2.64 nm.

On to Insulin, for which the “Hydrodynamic Radius” value in data set [2] is reported as 2.1 nm.

B1: Myoglobin (protein, UniProt P68082 2-154, looked up)
Myoglobin: GLSDGEWQQVLNVWGKVEADIAGHGQEVLIRLFTGHPETLEKFDKFKHLKTEAEMKASEDLKKHGTVVLTALGGILKKKGHHEAELKPLAQSHATKHKIPIKYLEFISDAIIHVLHSKHPGDFGADAQGAMTKALELFRNDIAAKYKELGFQG
As for B1, the “Hydrodynamic Radius” value in data set [2] was 3.34 nm.

These data come from patent publication US10086086B2, “Payload molecule delivery using molecular rebar” (Molecular Rebar Design, LLC, priority 2014, dated 2018).
